Data published in PubChem BioAssay (NCI).
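Assay format: 96-well plates, 48-hour exposure. GI50: concentration for 50% inhibition of growth. TGI denotes the concentration required for complete inhibition of growth.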

Legend:
Test in all cases: growth of human tumour cells (NCI), 48 h
[1] = system: ACHN renal
[2] = system: HCT-116 colon
[3] = system: OVCAR-3 ovarian
[4] = system: SN12C renal
[5] = system: SK-MEL-5 melanoma
[6] = system: MOLT-4 leukemia
[7] = system: OVCAR-4 ovarian
[8] = system: RPMI-8226 leukemia
[9] = system: IGROV1 ovarian
[10] = system: DMS 114 small cell lung

SMILES | GI50 [1] [µM] | TGI [1] [µM] | GI50 [2] [µM] | TGI [2] [µM] | GI50 [3] [µM] | TGI [3] [µM] | GI50 [4] [µM] | TGI [4] [µM] | GI50 [5] [µM] | TGI [5] [µM] | GI50 [6] [µM] | TGI [6] [µM] | GI50 [7] [µM] | TGI [7] [µM] | GI50 [8] [µM] | TGI [8] [µM] | GI50 [9] [µM] | TGI [9] [µM] | TGI [10] [µM]
COc1cc(Cl)cc(-c2nn(C(=O)NCCN3CCOCC3)cc2-c2ccncc2)c1 | 5.52 | 90.2 | 4.13 | 51.2 | 2.41 | 7.11 | 10 | > 100 | 2.59 | 13.1 | 3.78 | > 100 | 12.6 | > 100 | 7.38 | > 100 | 4.98 | > 100 | 
Cc1sc(C(=O)Nc2cc(C(=O)NCCCN(C)C)n(C)c2)cc1NC(=O)CCCN1C(=O)c2cccc3cccc(c23)C1=O | > 100 | > 100 | > 100 | > 100 | > 100 | > 100 | > 100 | > 100 | 38.2 | > 100 | 88.3 | > 100 | 41 | > 100 | > 100 | > 100 | > 100 | > 100 | 
O=Cc1cn(C(=O)c2ccccc2)c2ccccc12 |  | > 100 |  | > 100 |  | > 100 |  |  |  | > 100 |  | > 100 |  | > 100 |  | > 100 |  | > 100 | > 100
O=C(O)c1ccc([Se][Se]c2ccc(C(=O)O)cc2)cc1 |  |  |  | 34.5 |  | 42.9 |  | > 100 |  |  |  |  |  | 49.1 |  | 91.7 |  | 71.1 | 54
COC(=O)CCC1CCc2c(OC)ccc(O)c2C1=O (stereo not given) |  | > 100 |  | > 100 |  | > 100 |  | > 100 |  | > 100 |  | > 100 |  | > 100 |  | > 100 |  | > 100 | 
CC(C)(C)C[C@H]1NC(C(=O)NCC[C@H](O)CO)[C@H](c2cccc(Cl)c2)[C@@]12C(=O)Nc1cc(Cl)c(F)cc12 (stereo not given in full) | 3.28 | 16.3 | 3.07 | 16.3 | 14.6 | 28.1 | 19.8 | 46.8 | 6.73 | 20 | 2.19 | 8.22 | 14.8 | 32.4 | 12.8 | 38.4 | 4.08 | 21.1 | 
CCN(Cc1ccc(F)c(F)c1)c1ccc(CO)c(Cl)c1 | 9.77 | 22.8 | 0.0911 | 11.4 | 0.395 | 2.25 | 11 | 23.9 | 5.85 | 20.3 | 16.8 | 47.6 | 0.18 | 1.46 | 2.44 | 28.9 | 0.098 | 0.477 | 
C[C@H](Nc1ncnc2nc[nH]c12)c1cc2cccc(Cl)c2c(=O)n1-c1ccccc1 | 5 | > 100 | 18.4 | > 100 | 4.19 | > 100 | 3.11 | > 100 | 25.8 | > 100 | 6.53 | 51.1 | > 100 | > 100 | 60.3 | > 100 | 1.58 | 7.51 | 
